The nature of experiment [1]: Binding affinity to avidin at 1.6 mM by UV-vis spectroscopy.
Experiment [2] can be described thus: Binding affinity to avidin at 80 uM by UV-vis spectroscopy.
The nature of experiment [3]: Binding affinity to avidin by UV-vis spectroscopy.

Each structure is given as a SMILES string. Activity calls are given as the source filed them. The rule behind the calls is not given here.

As to `COc1nc(Cl)nc(OC)n1`, the result in experiment [1] was Active.

For the compound `CN(C)CC(=O)OCCCCNC(=O)CCCCCNC(=O)CCCC[C@@H]1SC[C@@H]2NC(=O)N[C@@H]21`, the outcome in experiment [2] was Active.

In the case of `CN(C)CC(=O)OCCCCCCCCCCNC(=O)CCCCCNC(=O)CCCC[C@@H]1SC[C@@H]2NC(=O)N[C@@H]21`, the outcome in experiment [2] was Active.

On to `CN(C)CC(=O)OCCCCCCNC(=O)CCCCCNC(=O)CCCC[C@@H]1SC[C@@H]2NC(=O)N[C@@H]21`, for which, in experiment [2], the outcome was Active.

Take `NCc1ccc(Br)cc1`: the outcome in experiment [3] was Active.

For the compound `CN(C)CC(=O)OCCCCCCCCNC(=O)CCCCCNC(=O)CCCC[C@@H]1SC[C@@H]2NC(=O)N[C@@H]21`, in experiment [2], the outcome was Active.

As to `NCCNC(=O)COc1cc(S(=O)(=O)O)c2ccc3c(S(=O)(=O)O)cc(S(=O)(=O)O)c4ccc1c2c43`, in experiment [1], the outcome was Active.

Consider `CN(C)CC(=O)OCCCCCNC(=O)CCCCCNC(=O)CCCC[C@@H]1SC[C@@H]2NC(=O)N[C@@H]21`, for which the result in experiment [2] was Active.

Turning to `CN(C)S(=O)(=O)c1ccc(NCCN)c2nonc12`, in experiment [3], the result was Active.

In turn, `O=C(O)CCCC[C@@H]1SC[C@@H]2NC(=O)N[C@@H]21` returned a Ka in experiment [3] of 1e+15 M⁻¹.

(Values after ChEMBL document CHEMBL1629502, “Labeling study of avidin by modular method for affinity labeling (MoAL)” (Bioorg Med Chem Lett, 2010).)
